Assay results taken from patent publication US20120136033A1, “Small Molecule Antagonists of Phosphatidylinositol-3,4,5-Triphosphate (PIP3) and Uses Thereof” (President and Fellows of Harvard College, priority 2009, published 2012).

Tests used:
[1] = tested on: SV40-transformed mouse adult lung fibroblasts; assay: loss of viability, Akt1-expressing vs Akt1-3 triple knockout lung fibroblasts; assay type: cell-based; details: P<0.01
Description: Shaughnessy J D (2008) Nature 454:172-3; Weinstein I G (2002) Science 297:63-4. Therefore, the possibility that PIT-1 may cause preferential cell death in the cells containing elevated PIP3 levels was examined. […] Li D M et al. (1998) Proc Natl Acad Sci USA 95:15406-11. […] This observation is consistent with the notion that PTEN-deficient cancer cells become overly dependent on PIP3 signaling and, therefore, are hypersensitive to disruption of this pathway compared to wild-type PTEN-expressing cells. Neshat M S et al. (2001) Proc Natl Acad Sci USA 98:10314-9.

SUM-159 cells = assay: acquisition of the invasive phenotype by SUM-159 cells; assay type: cell-based, human; details: reversible
eIF-1 = eIF-1 (Homo sapiens, UniProt P41567); assay: NMR HSQC specificity control, eIF-1; assay type: binding
Sequence of eIF-1 (P41567 whole entry, species assumed): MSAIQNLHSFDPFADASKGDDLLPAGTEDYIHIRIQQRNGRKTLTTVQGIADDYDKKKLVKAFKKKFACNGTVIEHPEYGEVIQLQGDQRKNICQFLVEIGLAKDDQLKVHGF

[2] = tested on: PI3K/PDK1/Akt signaling pathway; assay: PI3K/PDK1/Akt signaling in HUVEC, Western blotting; assay type: cell-based, human; details: 50, 100, 200 μM, 2 hr, bFGF
Procedure: Endothelial cell migration plays a central role in tumor angiogenesis. Avraamides C J et al. (2008) Nat Rev Cancer 8:604-17. […] First, human umbilical vein endothelial cells (HUVEC) cells were serum starved overnight, and treated with different concentrations of PIT-1 (50, 100 and 200 μM) for 2 hr, followed by stimulation with 10 ng/ml bFGF for 15 min, and the PIP3-dependent phosphorylation events were evaluated by Western blotting.

[3] = tested on: U87MG cells (R130M PTEN vs wt PTEN); assay: Sytox cell death assay, U87MG expressing wild-type or R130M inactive PTEN; assay type: cell-based, human; details: 25, 50, 100 μM, 48 hr
Procedure: After treatment with 25, 50, or 100 μM PIT-1 for 48 hr, cell death was analyzed using Sytox cell death assay.
Based on the critical role of PIP3-dependent Akt signaling in the regulation of cell survival, the effect of PIT-1 on the cancer cell viability was tested. Cancer cells were seeded into 96-well plates (white plates for ATP assay; black plates for fluorescent assay; clear plates for MTS assay) at the density of 5-10×10^3 cells per well in 100 μl of the appropriate media. Compounds were added at a series of concentrations and incubated for different times. For the ATP assay, a luminescence-based commercial kit (CellTiter-Glo, Promega, Madison, Wis.) was used. Thirty microliters of cell lysis/ATP detection reagent was added to each well, mixed for 10 min at room temperature, and the luminescence was measured using a Wallac Victor 3 plate reader (Perkin-Elmer, Wellesley, Mass.). […] Twenty microliters of the combined MTS/PMS solution was added into each well, incubated for 4 hr at 37° C., and the absorbance at 490 nm was measured using a Wallac Victor 3 plate reader. For the Sytox cell death assay, measuring loss of plasma membrane integrity, cells were incubated with 1 μM Sytox Green reagent (Molecular Probes, Eugene, Oreg.) for 30 min at 37° C. and the fluorescence intensity was measured using Wallac Victor 3 plate reader with excitation at 485 nm and emission at 545 nm. […]

U87MG cells = assay: long-term colony formation by U87MG cells; assay type: cell-based, human
LC3-II = assay: autophagic marker LC3-II in U87MG cells; assay type: cell-based, human
Description: Changes in cell metabolism have emerged in recent years as an important component of PI3K/PIP3/Akt signaling, contributing to the regulation of cell viability and transformation by the PI3K/Akt pathway. Datta S R et al. (1999) Genes Dev 13:2905-27; Elstrom R L et al. (2004) Cancer Res 64:3892-9. Therefore, the possibility that PIT-1 may cause dysregulation of energy homeostasis and induction of the metabolic stress in cancer cells, which may contribute to the PIT-induced cell death, was investigated. […] Hardie D G (2007) Nat Rev Mol Cell Biol 8:774-85. […] Mathew R et al. (2007) Nat Rev Cancer 7:961-7. […] Takeuchi H et al. (2005) Cancer Res 65:3336-46.

[4] = target: T1, PH domain of Akt (His6-Akt123) (Homo sapiens, UniProt P31749); assay: NMR 2D HSQC 1H-15N binding analysis, His6-Akt123
T1 construct: Human Akt PH domain a.a; 1-123; made in house; host or cells: E. coli BL21(DE3)
T1 sequence (P31749 1-123): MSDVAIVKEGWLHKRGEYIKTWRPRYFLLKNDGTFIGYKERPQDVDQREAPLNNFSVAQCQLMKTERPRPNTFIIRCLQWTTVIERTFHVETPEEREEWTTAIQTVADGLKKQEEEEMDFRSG
Procedure: Human Akt PH domain a.a. 1-123 and human PDK1 PH domain a.a. 411-557 were cloned by PCR amplification into Bam HI/Eco RI sites of pGEX-6P-1 vector (GE Healthcare). For NMR experiments, His6-Akt PH123 was prepared by cloning corresponding PCR fragment between Nde I and Eco RI sites of pET-28 vector (Novagen). Recombinant proteins were expressed in BL21(DE3) E. coli. Expression was induced by addition of 100 μM IPTG for 16 hr at 25° C. Proteins were purified using glutathione-sepharose (GE Healthcare) or Ni-NTA beads (Qiagen) according to manufacturer's recommendations and dialyzed overnight against 50 mM Tris-HCl (pH 7.5), 150 mM NaCl, and 5 mM β-mercaptoethanol (b-ME) buffer.
To further characterize the mode of action of PIT-1, NMR-based analyses of PIT-1 binding to the PH domain of Akt were performed. […] PIT-1 was further titrated to identify residues primarily affected by the small molecule binding.

SUM159 cells = assay: cell polarization in wounded SUM159 monolayers; assay type: cell-based, human; details: 100 μM, 2 hr
Procedure: In order to measure cell polarization, wounds were generated in SUM159 cell monolayers, followed by serum starvation and treatment with 100 μM PIT-1, PIT-2, PIT-1i-1, or PIT-1i-2 for 2 hr. Cells were stimulated for 15 min with 100 ng/ml PDGF, fixed and stained with TRITC-phalloidin for F-actin (red), acetylated tubulin antibody (green) for microtubule organization center (MTOC), and Hoechst for nuclei (blue). Cell polarization was evaluated by analysis of the relative location of the MTOC and nucleus. […] The number of polarized cells was counted in five random fields under fluorescent microscope.

PI3K-PDK1-Akt signaling = PI3K-PDK1-Akt signaling in growth factor-stimulated SUM159 cells; assay type: cell-based, human

SMILES	loss of viability in Akt1-expressing fibroblasts compared to Akt1-3 triple knockout cells [1]	acquisition of the invasive phenotype by SUM-159 cells (SUM-159 cells)	changes in HSQC spectrum of eIF-1 (eIF-1)	PI3K/PDK1/Akt signaling pathway in HUVEC [2]	toxicity in U87MG cells lacking PTEN activity compared to wt PTEN-expressing cells [3]	long-term colony formation by U87MG cells (U87MG cells)	expression of autophagic marker LC3-II (LC3-II)	changes in 2D HSQC spectrum of His6-Akt123 [4]	cell polarization and lamellipodia formation induced by PDGF, wound healing model (SUM159 cells)	PI3K-PDK1-Akt signaling in SUM159 cells (PI3K-PDK1-Akt signaling)
O=C(NC(=S)Nc1cc([N+](=O)[O-])cc(Cl)c1O)c1ccccc1 [PIT-1]	more pronounced	blocked acquisition of the invasive phenotype	did not elicit any changes	capable of blocking	more pronounced	suppressed long-term colony formation	prominently increased	induces significant changes	effective at preventing cell polarization	significantly suppressed
O=C1NC(=S)S/C1=C\c1cc(O)c([N+](=O)[O-])cc1Cc1ccccc1 [PIT-2]	more pronounced								effective at preventing cell polarization	
